In patent publication US20260284069A1, “PARG INHIBITORY COMPOUNDS” (FoRx Therapeutics AG, priority 2023, published 2026) one finds EC50 and IC50 data, which are given here for eleven molecules.

The subject of assay [1] is NCIH-460 cells. Description: Cellular viability assay (NCIH-460, PARG-inhibition sensitive cell line). It counts as cell-based. The conditions noted are these: Cell Titer-Glo, read-out: EC50 determined in NCIH-460 cells, cellular viability assay. As for the experimental part:
(§1) NCIH-460 as a PARG-inhibition sensitive cell line and U2OS as PARG-inhibition insensitive cell line were plated at 1000 cells/well and 2000 cells/well, respectively, in 96-well white plates with clear flat bottom. After 24 hours, the compounds were added with the Tecan digital dispenser (D300e), in duplicates. The outer wells of the plate were excluded. After 96 hours of incubation, 150 μl of the growth medium were removed and 50 μl of Cell Titer-Glo (Promega) were added per well. Following an incubation of 10 minutes, luminescence was read using a plate reader (Tecan). Averaged values of the samples were normalized to DMSO treated control samples. Curves were fit as % of the control vs. log of the compound concentration using a 4 parameter log-logistic function: […]
A general note: Cellular ATP, detected with luciferase, serves as a proxy for viable cell number.

The subject of assay [2] is U2OS cells. In words: Cellular viability assay (U2OS, PARG-inhibition insensitive cell line). The settings on record: 96 hours incubation, Cell Titer-Glo, read-out: EC50 determined in U2OS cells, cellular viability assay. In kind it is cell-based. The procedure:
as §1

In assay [3] the target is T1, human PARG (Homo sapiens, UniProt Q86W56, A967T/C963S/D927K/H446G/I916T/L447S/L473S/M841I/N479S/R811K/S802A/S858P/T924D).
T1 construct: human PARG (448-976 [H446G, L447S, L473S); 6His-TwinStrep (protease-cleavable) (N, cleaved yes); Gly-Ser at positions 446-447, given as H446G, L447S; host or cells: E. coli BL21 (DE3)
Description: PARG enzymatic IC50 assay. In kind it is biochemical. The conditions noted are these: PARG protein, 2 hours incubation; substrate ADP-ribose-pNP, absorbance 405 nm; read-out: IC50 determined in PARG enzymatic assay. As for the experimental part:
A codon optimized gene encoding human PARG (448-976 [H446G, L447S, L473S, N479S, S802A, R811K, M841I, S858P, I916T, T924D, D927K, C963S, A967T]) was synthesized by Genscript, and cloned into pET15b (NcoI/BamHI) with an N-terminal, […] protease cleavable 6His-TwinStrep tag. Expression of the protein in E. coli BL21 (DE3) was induced by addition of 0.2 mM IPTG to a shake flask culture grown to OD600=0.8 at 37° C. Growth was allowed to continue at 30° C. for a further 20 hours before harvesting by centrifugation and storage of the cell pellet at −80° C.
Protein was purified by IMAC and SEC: frozen cell pellets (typically 40 g wet weight) were resuspended by homogenization in 5 volumes buffer A (25 mM Tris/HCl pH 8.0, 200 mM NaCl, 2 mM DTT), supplemented with 1 mg of DNase I from bovine pancreas (Sigma-Aldrich) and protease inhibitors (Roche Complete™ EDTA-free protease inhibitor tablet), and lysed by passage through a Constant Systems BasicZ homogenizer. The lysate was clarified by centrifugation for 60 minutes at 25,000 g, 4° C., and the lysate supernatant was loaded onto 5 ml StrepTrap HP (Cytiva) pre-equilibrated with buffer A. The column was washed with buffer A (~10 CV), then buffer B containing 1M KCl (~5 CV), and then the protein was eluted with buffer A containing 2.5 mM d-Desthiobiotin. Pooled fractions containing 6HisTwinStrep-TEV-hPARG were incubated with TEV protease overnight at 4° C. hPARG was separated from uncleaved material and […] protease through gel filtration with Superdex75 sizing column (GE Healthcare) pre-equilibrated with SEC buffer (15 mM Tris/HCl pH 8.5, 100 mM NaCl, 2 mM DTT). Pooled fractions containing pure hPARG were concentrated using a 10 k MWCO spin concentrator (VivaSpin) to 10 mg/mL, and then either used immediately for crystallisation or snap-frozen in liquid nitrogen for storage at −80° C.
PARG enzyme as incubated with compound or vehicle (DMSO) for 2 hours in a 384 well plate. After adding the PARG substrate ADP-ribose-pNP, the plate was read for absorbance intensity at 405 nm. The vehicle (DMSO) with high absorbance intensity represents no inhibition of enzymatic reaction while the low control (no enzyme) with low absorbance intensity represents full inhibition of enzymatic reaction.
• hPARG: Peak Protein, 30 nM • Substrate: ADP-pNP, 800 μM, Jena Bioscience catalog #NU-955 • Reaction time: 60 minutes • Assay buffer: 50 mM Tris-HCl pH 8.0, 100 mM NaCl, 2 mM DTT • Temperature: 30° C. • Total volume: 30 μL
• 0% inhibition control: DMSO • 100% inhibition control: No enzyme
The protocol that was used for enzyme reaction and detection is as follows: • 1. Transfer 100 nL of the final concentration of test compounds or vehicle (DMSO) to the appropriate wells of a microtiter plate. • 2. Centrifuge the plate at 1000 rpm for 1 minute. • 3. Transfer 14.6 μL of 2× final concentration of enzyme in assay buffer or assay buffer alone to the appropriate wells. • 4. Centrifuge the plate at 1000 rpm for 1 minute. • 5. Incubate the plate at room temperature for 15 minutes or 2 hours. • 6. Transfer 15.4 μL of 2× substrate in assay buffer to all the test wells. • 7. Centrifuge the plate at 1000 rpm for 1 minute. • 8. Read the plate on a plate reader (e.g., Spark Tecan).

The target of assay [4] is T2, PARG (Homo sapiens, UniProt Q86W56).
T2 construct: endogenous in cells; host or cells: U2OS
In words: Cellular PAR chain assay. The conditions noted are these: U2OS cells, 1 hour compound pretreatment then 1-hour TMZ treatment; % PAR chain positive cells by flow cytometry; read-out: EC50 determined in cellular PAR chain assay. It counts as cell-based. The procedure:
The ability of compounds to inhibit PARG in response to DNA damage, was assessed with U2OS cells pretreated with the compounds for 1 hour, following a 1-hour treatment with the DNA alkylating agent temozolomide (TMZ). […] The cells were incubated for 2 hours at room temperature with a mouse monoclonal antibody against poly (ADP) ribose (PAR) polymer. The cells were washed and incubated with an anti-mouse Alexa-488 conjugated secondary antibody for 1 hour at room temperature. Propidium iodide staining was used to determine DNA content in the cells (staining at 4° C. overnight). The fluorescence intensity of the cells was assessed by flow cytometry (Cytoflex from Beckmann) and the percentage of PAR chain positive cells (gated in relation to TMZ+DMSO treated control) was determined. PAR chain positive cells % were fit against the concentration of the compound using a 4 parameter log-logistic function, generating PAR chain EC50 values: […]
A general note: A flow cytometer gives signals particle by particle.

Where [5] appears, read: Homo sapiens, NCI-H460, 96 h, 96 hours incubation.

Counter-ions that a name gives are not always drawn. Like-named read-outs stand apart in the source and are kept apart here.

T1 sequence (Q86W56 446-976 H446G/L447S/L473S/N479S/S802A/R811K/M841I/S858P/I916T/T924D/D927K/C963S/A967T): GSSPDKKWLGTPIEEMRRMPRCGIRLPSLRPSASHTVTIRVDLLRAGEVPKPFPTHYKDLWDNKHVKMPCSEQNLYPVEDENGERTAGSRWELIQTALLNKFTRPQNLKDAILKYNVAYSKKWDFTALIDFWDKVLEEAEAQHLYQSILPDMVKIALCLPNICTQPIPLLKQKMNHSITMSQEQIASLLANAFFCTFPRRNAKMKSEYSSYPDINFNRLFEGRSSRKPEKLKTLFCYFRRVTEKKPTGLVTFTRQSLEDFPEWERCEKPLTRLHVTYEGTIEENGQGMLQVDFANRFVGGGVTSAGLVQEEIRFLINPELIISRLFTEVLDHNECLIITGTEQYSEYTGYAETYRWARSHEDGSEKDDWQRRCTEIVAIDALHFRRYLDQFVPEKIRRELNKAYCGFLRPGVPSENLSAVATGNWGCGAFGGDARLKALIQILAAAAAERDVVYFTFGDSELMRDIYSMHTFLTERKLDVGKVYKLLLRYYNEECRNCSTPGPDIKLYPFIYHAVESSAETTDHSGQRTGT
T2 sequence (Q86W56 whole entry): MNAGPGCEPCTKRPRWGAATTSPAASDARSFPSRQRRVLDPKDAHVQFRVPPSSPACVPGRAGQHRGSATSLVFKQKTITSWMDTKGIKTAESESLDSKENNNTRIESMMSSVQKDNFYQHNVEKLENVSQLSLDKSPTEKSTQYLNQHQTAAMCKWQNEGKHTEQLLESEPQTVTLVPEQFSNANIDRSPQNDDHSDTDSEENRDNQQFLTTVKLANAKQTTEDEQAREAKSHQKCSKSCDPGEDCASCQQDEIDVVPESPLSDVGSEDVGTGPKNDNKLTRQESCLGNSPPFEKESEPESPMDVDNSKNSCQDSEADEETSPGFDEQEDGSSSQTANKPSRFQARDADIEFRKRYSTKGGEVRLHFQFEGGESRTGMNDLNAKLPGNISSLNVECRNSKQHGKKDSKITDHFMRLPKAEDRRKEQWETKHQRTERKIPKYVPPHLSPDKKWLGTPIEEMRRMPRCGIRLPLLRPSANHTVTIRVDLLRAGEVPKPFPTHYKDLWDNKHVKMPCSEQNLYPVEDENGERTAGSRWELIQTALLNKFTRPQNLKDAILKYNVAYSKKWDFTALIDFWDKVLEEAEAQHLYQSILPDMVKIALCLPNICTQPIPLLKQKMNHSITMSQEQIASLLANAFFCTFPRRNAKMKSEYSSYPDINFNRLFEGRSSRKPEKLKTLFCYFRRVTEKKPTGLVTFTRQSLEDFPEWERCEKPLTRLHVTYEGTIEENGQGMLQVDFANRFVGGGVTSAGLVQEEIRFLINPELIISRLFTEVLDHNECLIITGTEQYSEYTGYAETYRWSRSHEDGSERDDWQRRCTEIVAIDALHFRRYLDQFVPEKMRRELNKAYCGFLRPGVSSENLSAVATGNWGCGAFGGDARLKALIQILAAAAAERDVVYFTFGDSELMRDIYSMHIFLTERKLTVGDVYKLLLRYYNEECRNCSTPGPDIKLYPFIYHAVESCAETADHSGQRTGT

For the molecule `CC1(C)CN(c2cc(S(=O)(=O)NC3(C)CC3)cn3c(-c4nnc(C(F)F)s4)ncc23)CC(CO)N1` (single isomer, unassigned) [Example 14a, (R or S)-3-(5-(difluoromethyl)-1,3,4-thiadiazol-2-yl)-8-(5-(hydroxymethyl)-3,3-dimethylpiperazin-1-yl)-N-(1-methylcyclopropyl)imidazo[1,5-a]pyridine-6-sulfonamide], the 50% effective concentration (EC50) is 1.79 µM in assay [1] (96 hours incubation) and over 11.9 µM in assay [2] (Homo sapiens, U2OS, 96 h). Moreover, in assay [3], the IC50 came to 0.015 µM.
As to `CC1(C)CN(c2cc(S(=O)(=O)NC3(C)CC3)cn3c(-c4nnc(C(F)F)s4)ncc23)CC(CO)N1` (single isomer, unassigned) [Example 14b, (S or R)-3-(5-(difluoromethyl)-1,3,4-thiadiazol-2-yl)-8-(5-(hydroxymethyl)-3,3-dimethylpiperazin-1-yl)-N-(1-methylcyclopropyl)imidazo[1,5-a]pyridine-6-sulfonamide], the EC50 in assay [1] (96 hours incubation) was 0.0774 µM; in assay [2], over 11.4 µM. For the same molecule, the IC50 in assay [3] came to 0.012 µM.
With `C[C@H]1CN(c2cc(S(=O)(=O)NC3(C)CC3)cn3c(-c4nnc(C(F)F)s4)cnc23)C[C@H](C)N1` [Example 1, 3-(5-(difluoromethyl)-1,3,4-thiadiazol-2-yl)-8-((3S,5S)-3,5-dimethylpiperazin-1-yl)-N-(1-methylcyclopropyl)imidazo[1,2-a]pyridine-6-sulfonamide formate], the EC50 in assay [1] (setting [5]) is 0.07 µM; in assay [2] (Homo sapiens, U2OS, 96 h), 12.6 µM. For the same molecule, in assay [3], the IC50 amounted to 0.011 µM.
Taken in the same sequence, the figures for `CC1(NS(=O)(=O)c2cc(C3=CCNCC3(F)F)c3c(Cl)nc(-c4nnc(C(F)F)s4)n3c2)CC1` [Example 2, 1-chloro-8-(3,3-difluoro-1,2,3,6-tetrahydropyridin-4-yl)-3-(5-(difluoromethyl)-1,3,4-thiadiazol-2-yl)-N-(1-methylcyclopropyl)imidazo[1,5-a]pyridine-6-sulfonamide] were 0.199 µM, 13.3 µM and 0.011 µM.
On the same counts, the results for `COC[C@H]1CN(c2cc(S(=O)(=O)NC3(C)CC3)cn3c(-c4nnc(C(F)F)s4)ncc23)C[C@H](COC)N1` [Example 3, 8-((3R,5R)-3,5-bis(methoxymethyl)piperazin-1-yl)-3-(5-(difluoromethyl)-1,3,4-thiadiazol-2-yl)-N-(1-methylcyclopropyl)imidazo[1,5-a]pyridine-6-sulfonamide formate] are 0.019 µM, over 11 µM and 0.012 µM.
On the same counts, the results for `CN=S1(=O)CCN(c2cc(S(=O)(=O)NC3(C)CC3)cn3c(-c4nnc(C(F)F)s4)ncc23)CC1C` (stereo not drawn) [Example 4, (Cis or Trans)-3-(5-(difluoromethyl)-1,3,4-thiadiazol-2-yl)-8-(2-methyl-1-(methylimino)-1-oxido-116-thiomorpholino)-N-(1-methylcyclopropyl)imidazo[1,5-a]pyridine-6-sulfonamide] are 0.111 µM, over 20 µM and 0.011 µM.
Take `CN=S1(=O)CCN(c2cc(S(=O)(=O)NC3(C)CC3)cn3c(-c4nnc(C(F)F)s4)ncc23)CC1C` (stereo not drawn) [Example 5, (Trans or Cis)-3-(5-(difluoromethyl)-1,3,4-thiadiazol-2-yl)-8-(2-methyl-1-(methylimino)-1-oxido-116-thiomorpholino)-N-(1-methylcyclopropyl)imidazo[1,5-a]pyridine-6-sulfonamide]: the results for the EC50 in assay [1] (96 hours incubation) and in assay [2] were 0.208 µM and over 20 µM, respectively.
In the case of `CC1CN(c2cc(S(=O)(=O)NC3(C)CC3)cn3c(-c4nnc(C(F)F)s4)ncc23)CC2(CC2)N1` (stereo not shown) [Example 10, 3-(5-(difluoromethyl)-1,3,4-thiadiazol-2-yl)-8-(5-methyl-4,7-diazaspiro[2.5]octan-7-yl)-N-(1-methylcyclopropyl)imidazo[1,5-a]pyridine-6-sulfonamide formate], the EC50 in assay [1] (setting [5]) was 0.418 µM; in assay [2] (Homo sapiens, U2OS, 96 h) it was over 20 µM. Besides, the IC50 in assay [3] came to 0.011 µM.
As to `CC1(NS(=O)(=O)c2cc(C3=CCNCC3)c3c(C4CC4)nc(-c4nnc(C(F)F)s4)n3c2)CC1` [Example 11, 1-cyclopropyl-3-(5-(difluoromethyl)-1,3,4-thiadiazol-2-yl)-N-(1-methylcyclopropyl)-8-(1,2,3,6-tetrahydropyridin-4-yl)imidazo[1,5-alpyridine-6-sulfonamide formate], the EC50 in assay [1] (Homo sapiens, NCI-H460, 96 hours incubation) was determined as 0.074 µM; in assay [2] (Homo sapiens), 1720 µM; in assay [4], 0.009 µM. Further, the IC50 in assay [3] amounted to 0.016 µM.
On to `CC1(NS(=O)(=O)c2cc(C3=CCNCC3)c3c(C(F)(F)F)nc(-c4nnc(C(F)F)s4)n3c2)CC1` [Example 12, 3-(5-(difluoromethyl)-1,3,4-thiadiazol-2-yl)-N-(1-methylcyclopropyl)-8-(1,2,3,6-tetrahydropyridin-4-yl)-1-(trifluoromethyl)imidazo[1,5-a]pyridine-6-sulfonamide formate], for which the EC50 is 0.094 µM in assay [1] (setting [5]); 3.87 µM in assay [2] (Homo sapiens, U2OS, 96 h); 0.006 µM in assay [4]. Besides, the IC50 in assay [3] came to 0.011 µM.
With `CC1(C)CN(c2cc(S(=O)(=O)NC3(C)CC3)cn3c(-c4nnc(C(F)F)s4)ncc23)CC(CO)N1` (stereo not shown) [Example 14, 3-(5-(difluoromethyl)-1,3,4-thiadiazol-2-yl)-8-(5-(hydroxymethyl)-3,3-dimethylpiperazin-1-yl)-N-(1-methylcyclopropyl)imidazo[1,5-a]pyridine-6-sulfonamide], the EC50 in assay [1] (setting [5]) stood at 0.094 µM; in assay [2] (Homo sapiens, U2OS, 96 h) it was 9.52 µM. For the same molecule, in assay [3], the IC50 was 0.011 µM.

As a reminder, the EC50 is the concentration that produces a half-maximal response. Broadly, the IC50 is the concentration that gives 50% inhibition.
